Measured values reported in article PMC3542985 (The Journal of neuroscience : the official journal of the …, 2013).
Where “and” joins values, the source holds several entries; their conditions need not be identical. Equal values may be shown once. Read-outs that look alike come from different tables or passages of the source.

Key:
[1] = target: T1, Torpedo nAChR (Tetronarce californica, UniProt P02710+P02712+P02714+P02718); type: binding
[2] = target: T1, Torpedo nAChR; assay: biochemical; type: binding
[3] = target: T2, Na^+/K^+-ATPase α subunit (Tetronarce californica, UniProt P05025); type: binding, Torpedo californica
T2 sequence (P05029 whole entry, other chains not shown): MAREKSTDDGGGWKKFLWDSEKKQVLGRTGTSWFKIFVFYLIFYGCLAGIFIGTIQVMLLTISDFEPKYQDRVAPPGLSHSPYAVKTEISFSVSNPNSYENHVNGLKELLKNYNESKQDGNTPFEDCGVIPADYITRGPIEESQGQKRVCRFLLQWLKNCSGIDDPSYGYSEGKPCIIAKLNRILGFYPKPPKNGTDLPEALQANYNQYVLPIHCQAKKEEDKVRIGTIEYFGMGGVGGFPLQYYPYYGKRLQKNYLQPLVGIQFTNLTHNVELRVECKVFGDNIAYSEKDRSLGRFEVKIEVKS

[4] = target: T1, Torpedo nAChR; assay: equilibrium binding of the ion channel blocker [^3H]tetracaine
[5] = target: T2, Na^+/K^+-ATPase α subunit; type: binding, Torpedo californica; remark: listed apart in the source
[6] = target: T1, Torpedo nAChR; assay: equilibrium binding of [^3H]ACh; conditions: IC50, inhibition of [^3H]ACh binding
[7] = target: T1, Torpedo nAChR; assay: equilibrium binding of the ion channel blocker [^3H]PCP
[8] = Resting vs. Desensitized, −Carb (no other drugs)

T1 sequence (P02718 22-522): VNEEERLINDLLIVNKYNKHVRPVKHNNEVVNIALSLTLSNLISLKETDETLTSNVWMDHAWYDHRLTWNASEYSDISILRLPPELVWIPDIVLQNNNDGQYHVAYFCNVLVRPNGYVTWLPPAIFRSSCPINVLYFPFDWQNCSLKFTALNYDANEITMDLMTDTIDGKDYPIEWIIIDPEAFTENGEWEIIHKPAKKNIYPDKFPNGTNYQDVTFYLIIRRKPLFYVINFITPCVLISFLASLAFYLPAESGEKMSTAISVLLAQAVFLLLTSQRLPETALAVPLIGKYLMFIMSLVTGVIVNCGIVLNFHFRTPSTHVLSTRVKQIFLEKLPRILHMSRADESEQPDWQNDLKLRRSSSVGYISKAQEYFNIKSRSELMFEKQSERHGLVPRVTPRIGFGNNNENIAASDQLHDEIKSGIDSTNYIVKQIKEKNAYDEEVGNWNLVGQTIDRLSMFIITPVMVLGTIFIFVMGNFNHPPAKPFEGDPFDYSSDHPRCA
T1 sequence (P02714 18-506): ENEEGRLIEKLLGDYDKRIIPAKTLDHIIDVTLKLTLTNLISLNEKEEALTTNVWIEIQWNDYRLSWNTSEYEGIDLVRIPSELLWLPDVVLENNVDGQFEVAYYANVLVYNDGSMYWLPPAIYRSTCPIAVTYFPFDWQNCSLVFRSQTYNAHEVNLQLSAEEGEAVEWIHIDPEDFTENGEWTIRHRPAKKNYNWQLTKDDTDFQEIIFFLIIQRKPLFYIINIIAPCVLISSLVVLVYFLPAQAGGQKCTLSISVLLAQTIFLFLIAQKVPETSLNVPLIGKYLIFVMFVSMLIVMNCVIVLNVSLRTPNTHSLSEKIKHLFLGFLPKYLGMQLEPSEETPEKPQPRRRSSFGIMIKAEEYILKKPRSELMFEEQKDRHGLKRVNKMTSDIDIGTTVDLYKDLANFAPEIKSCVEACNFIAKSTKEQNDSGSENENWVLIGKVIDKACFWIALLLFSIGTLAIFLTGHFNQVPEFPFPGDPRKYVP
T1 sequence (P02712 25-493): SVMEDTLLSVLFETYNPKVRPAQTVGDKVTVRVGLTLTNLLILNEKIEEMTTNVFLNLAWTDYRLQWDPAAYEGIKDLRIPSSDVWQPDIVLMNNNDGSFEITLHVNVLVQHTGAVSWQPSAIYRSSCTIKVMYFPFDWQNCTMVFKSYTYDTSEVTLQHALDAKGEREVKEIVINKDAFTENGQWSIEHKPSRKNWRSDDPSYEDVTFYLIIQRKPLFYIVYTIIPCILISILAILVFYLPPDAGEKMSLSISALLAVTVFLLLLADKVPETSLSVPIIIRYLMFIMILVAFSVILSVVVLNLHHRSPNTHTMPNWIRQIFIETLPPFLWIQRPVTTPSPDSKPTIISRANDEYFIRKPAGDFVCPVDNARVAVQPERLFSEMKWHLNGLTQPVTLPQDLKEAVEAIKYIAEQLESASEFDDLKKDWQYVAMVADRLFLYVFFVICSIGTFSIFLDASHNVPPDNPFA
T1 sequence (P02710 25-461): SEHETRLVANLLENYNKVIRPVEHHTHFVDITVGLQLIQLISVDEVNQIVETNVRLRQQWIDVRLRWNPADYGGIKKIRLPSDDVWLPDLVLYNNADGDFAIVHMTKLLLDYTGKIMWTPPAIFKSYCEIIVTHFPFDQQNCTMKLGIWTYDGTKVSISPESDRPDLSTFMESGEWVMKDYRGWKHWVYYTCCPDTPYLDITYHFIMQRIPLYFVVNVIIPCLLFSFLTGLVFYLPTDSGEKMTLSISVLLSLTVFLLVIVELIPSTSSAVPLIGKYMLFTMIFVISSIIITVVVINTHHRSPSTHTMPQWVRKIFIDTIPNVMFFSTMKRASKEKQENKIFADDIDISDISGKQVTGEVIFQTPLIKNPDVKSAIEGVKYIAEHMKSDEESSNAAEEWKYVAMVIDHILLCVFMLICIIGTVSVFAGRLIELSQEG

C[N+](C)(C)CCOC(N)=O.[Cl-] [Carb, carbamylcholine]
inhibition of [^3H]galanthamine photolabeling in the α subunit [1]: 80% | inhibition of [^3H]galanthamine photolabeling of αTyr-190 and αTyr-198 [1]: > 95% | reduction of [^3H]galanthamine photolabeling in β subunit [1]: < 5% | reduction of [^3H]galanthamine photolabeling in γ and δ subunits [1]: ~ 25% | alteration of [^3H]physostigmine photoincorporation in nAChR β subunit [2]: < 5% | change of efficiency of [^3H]physostigmine photolabeling at δTyr-439 [2]: < 20% | effect on [^3H]physostigmine photolabeling of γTyr-105 [2]: enhanced | effect on efficiency of [^3H]physostigmine photolabeling of δTyr-212 [2]: doubled | increase of [^3H]physostigmine photolabeling of nAChR δ subunit [2]: ~ 10% | inhibition of [^3H]physostigmine photolabeling of αTyr-93 [2]: > 90% | inhibition of [^3H]physostigmine photolabeling of αTyr-190, αCys-192 and αTyr-198 [2]: > 85% | inhibition of [^3H]physostigmine photolabeling of αV8-20 fragment [2]: > 75% | inhibition of [^3H]physostigmine photolabeling of γTyr-111 and γTyr-117 [2]: 50–60% | reduction of [^3H]physostigmine photoincorporation into nAChR α subunit [2]: 40% | reduction of [^3H]physostigmine photoincorporation into nAChR γ subunit [2]: 10% | alteration of [^3H]physostigmine photoincorporation in Na^+/K^+-ATPase α subunit [3]: < 5%

COc1ccc2c3c1O[C@H]1C[C@@H](O)C=C[C@@]31CCN(C)C2 [galanthamine]
reduction of [^3H]galanthamine photolabeling of each nAChR subunit [1]: ~ 25% | inhibition at 3000 µM ([4]; read-out: inhibition of [^3H]tetracaine binding): 10% | change of efficiency of [^3H]physostigmine photolabeling at δTyr-439 [2]: < 20% | reduction of [^3H]physostigmine photoincorporation into the nAChR subunits [2]: to the same extent as 100 μM physostigmine | inhibition at 300 µM ([2]; read-out: inhibition of [^3H]physostigmine photolabeling of γTyr-105, γTyr-111 and γTyr-117): ~75% | inhibition at 300 µM ([2]; read-out: inhibition of [^3H]physostigmine photolabeling of δTyr-212): ~50% | reduction of [^3H]galanthamine photolabeling of Na^+/K^+-ATPase α subunit [5]: < 5% | IC50 [6]: 3000 µM and 2800 µM | inhibition at 3000 µM ([7]; read-out: inhibition of [^3H]PCP binding): 20%

CNC(=O)Oc1ccc2c(c1)[C@]1(C)CCN(C)[C@@H]1N2C [physostigmine]
IC50 [4]: 5000 µM | decrease of [^3H]physostigmine photolabeling in the nAChR subunits [2]: 25–40% | decrease of [^3H]physostigmine photolabeling in Na^+/K^+-ATPase α subunit [3]: < 5% | IC50 [6]: > 10000 µM | IC50 ([7]; IC50, inhibition of [^3H]PCP binding): 1000 µM and 900 µM

[^3H]physostigmine
efficiency of photolabeling at δTyr-439 [2]: 1 cpm/pmol | photolabeling, if it occurred, of αLys-125 [2]: less than 0.2 cpm/pmol | photolabeling, if it occurred, of αTyr-127 [2]: < 0.05 cpm/pmol | photolabeling of δTyr-172 ([2]; +Carb 1 mM): 4.9 cpm/pmol | photolabeling of δTyr-172 ([2]; +αBgTx 8 μM): 1.6 cpm/pmol | photolabeling of δTyr-172 ([2]; Carb-independent): 4 cpm/pmol | photoincorporation into αY190 (Site IV, core aromatics) [2, 8]: 10 cpm/pmol | photoincorporation into αY198 (Site IV, core aromatics) [2, 8]: 20 cpm/pmol | photoincorporation into γY111 (Site I) [2, 8]: 9 cpm/pmol | photoincorporation into γY117 (Site I) [2, 8]: 2 cpm/pmol | photolabeling of αCys-192 ([2]; absence of other drugs): 10 cpm/pmol | photolabeling of δTrp-57 ([2]; data not shown): 0.8 cpm/pmol | photolabeling, if it occurred, of adjacent aromatic amino acids (δTrp-64, δTyr-65) ([2]; data not shown): < 0.2 cpm/pmol | photolabeling of δTyr-172 ([2]; −Carb): 3.4 cpm/pmol | photolabeling of δTyr-172 ([2]; −αBgTx): 5 cpm/pmol

α-bungarotoxin [α-BgTx]
alteration of [^3H]physostigmine photoincorporation in nAChR β subunit [2]: < 5% | change of efficiency of [^3H]physostigmine photolabeling at δTyr-439 [2]: < 20% | decrease of [^3H]physostigmine photolabeling of nAChR δ subunit [2]: ~ 10% | effect on [^3H]physostigmine photolabeling of γTyr-105 [2]: unchanged | inhibition of [^3H]physostigmine photolabeling of αTyr-190, αCys-192 and αTyr-198 [2]: > 85% | inhibition of [^3H]physostigmine photolabeling of αV8-20 fragment [2]: > 75% | inhibition of [^3H]physostigmine photolabeling of γTyr-111 and γTyr-117 [2]: 50–60% | reduction of [^3H]physostigmine photoincorporation into nAChR α subunit [2]: 40% | reduction of [^3H]physostigmine photoincorporation into nAChR γ subunit [2]: 20% | reduction of [^3H]physostigmine photolabeling of δTyr-172 [2]: 70% | reduction of efficiency of [^3H]physostigmine photolabeling of δTyr-212 [2]: ~ 25% | alteration of [^3H]physostigmine photoincorporation in Na^+/K^+-ATPase α subunit [3]: < 5%
